No end group written: not given here.

This assay has as its system ob/ob mice. Kind of assay: In vivo glucose absorption (oral glucose challenge). The conditions noted are these: given orally at 100 µg, 30 minutes prior to an oral glucose challenge; serum glucose. On the procedure:
Eight female ob/ob mice, approximately 6 weeks old (Jackson Labs, Bar Harbor, ME) are adapted to a 4 hour daily feeding schedule for two weeks. After two weeks on the feeding schedule, the mice are give 100 µg of a peptide corresponding to the amino acid sequence as shown in SEQ ID NOs:4-6, 9-11, 14-17, 20-22, or 25-26 in 100 µl sterile 0.1% BSA by oral gavage, immediately after their eating period (post-prandially). Thirty minutes later, the mice are challenged orally with a 0.5 ml volume of 25% glucose. Retroorbital bleeds are done to determine serum glucose levels. Blood is drawn prior to peptide dosing, prior to oral glucose challenge, and at 1, 2, 4, and 20 hours following the glucose challenge.
Turning to “zsig33-delta: peptide corresponding to residues 1 to 10 of SEQ ID NO:14; listing has 10-residue SEQ ID NO:20 (FNAPFDVGIK)”, the post-prandial glucose absorption entry is recorded as “enhanced post-prandial glucose absorption”.

Regarding “zsig33-epsilon: peptide corresponding to residues 1 to 13 of SEQ ID NO:17; listing has 13-residue amidated SEQ ID NO:26 (LSGVQYQQHSQAL-NH2)”, the post-prandial glucose absorption result is listed as “enhanced post-prandial glucose absorption”.

Turning to “zsig33-gamma: peptide corresponding to residues 1 to 17 of SEQ ID NO:10; listing has 17-residue SEQ ID NO:14 (FLQDILWEEAKEAPADK)”, the post-prandial glucose absorption result is “enhanced post-prandial glucose absorption”.
